# Measurements published in patent US20050032873A1, “3-Amino chroman and 2-amino tetralin derivatives” (Wyeth, priority 2003, published 2005).
# Where a name gives a salt, the structure may show the parent alone.
row,melting point,Structure (SMILES)
1,124 °C (dec.),"CC(C1CC1)N(CCCc1c[nH]c2ccc(F)cc12)C1COc2c(F)ccc(C(N)=O)c2C1 (stereo not drawn) (as salt: hydrochloride) [Compound 6, 3-{(1-cyclopropylethyl)[3-(5-fluoro-1H-indol-3-yl)propyl]amino}-8-fluorochromane-5-carboxamide]"
2,139 °C (dec.),"NC(=O)c1ccc(F)c2c1CC(N(CCC(=O)c1c[nH]c3ccc(F)cc13)C1CCC1)CO2 (stereo not drawn) (as salt: hydrochloride) [Compound 8, 3-{cyclobutyl[3-(5-fluoro-1H-indol-3-yl)-3-oxopropyl]amino}-8-fluorochromane-5-carboxamide]"
3,219 °C (dec.),"COC(=O)c1ccc(F)c2c1CC(NCCCc1c[nH]c3ccc(F)cc13)CO2 (stereo not drawn) (as salt: hydrochloride) [Compound 10, Methyl 8-fluoro-3-{[3-(5-fluoro-1H-indol-3-yl)propyl]amino}chromane-5-carboxylate]"
4,117 °C (dec.),"CCCN(CCC(O)c1csc2ccc(F)cc12)C1COc2c(F)ccc(C(N)=O)c2C1 (stereo not drawn) (as salt: hydrochloride) [Compound 17, 8-fluoro-3-[[3-(5-fluoro-1-benzothien-3-yl)-3-hydroxypropyl](propyl)amino]chromane-5-carboxamide]"
5,78 °C (dec.),"CCCN(CCCc1csc2ccc(F)cc12)C1COc2cccc(OC)c2C1 (stereo not drawn) (as salt: hydrochloride) [Compound 19, N-[3-(5-fluoro-1-benzothien-3-yl)propyl]-5-methoxy-N-propylchroman-3-amine]"
6,114 to 118 °C (dec.),"CCCN(CCCc1coc2ccccc12)C1COc2c(F)ccc(C(N)=O)c2C1 (stereo not drawn) (as salt: hydrochloride) [Compound 20, 3-[[3-(1-benzofuran-3-yl)propyl](propyl)amino]-8-fluorochromane-5-carboxamide]"
7,152 to 154 °C,"CCN(CCCCc1coc2ccccc12)C1COc2cccc(OC)c2C1 (stereo not drawn) (as salt: hydrochloride) [Compound 22, N-[4-(1-benzofuran-3-yl)butyl]-N-ethyl-N-(5-methoxy-3,4-dihydro-2H-chromen-3-yl)amine]"
8,89 °C (dec.),"COc1cccc2c1CC(N(CCCCc1c[nH]c3ccc(F)cc13)C1CCC1)CO2 (stereo not drawn) (as salt: hydrochloride) [Compound 36, N-cyclobutyl-N-[4-(5-fluoro-1H-indol-3-yl)butyl]-N-(5-methoxy-3,4-dihydro-2H-chromen-3-yl)amine]"
9,86 °C (dec.),"COc1cccc2c1CC(N(CCCc1cn(C)c3ccc(F)cc13)CC1CC1)CO2 (stereo not drawn) (as salt: hydrochloride) [Compound 38, N-(cyclopropylmethyl)-N-[3-(5-fluoro-1-methyl-1H-indol-3-yl)propyl]-N-(5-methoxy-3,4-dihydro-2H-chromen-3-yl)amine]"
10,112 °C (dec.),"COc1cccc2c1CC(N(CCCc1c[nH]c3ccc(F)cc13)C1CCCC1)CO2 (stereo not drawn) (as salt: hydrochloride) [Compound 39, N-cyclopentyl-N-[3-(5-fluoro-1H-indol-3-yl)propyl]-N-(5-methoxy-3,4-dihydro-2H-chromen-3-yl)amine]"
11,105 °C (dec.),"COc1cccc2c1CC(N(CCCc1c[nH]c3ccc(F)cc13)C(C)C)CO2 (stereo not drawn) (as salt: hydrochloride) [Compound 40, N-[3-(5-fluoro-1H-indol-3-yl)propyl]-N-isopropyl-N-(5-methoxy-3,4-dihydro-2H-chromen-3-yl)amine]"
12,115 °C (dec.),"COc1cccc2c1CC(N(CCCc1c[nH]c3ccc(F)cc13)C1CC1)CO2 (stereo not drawn) (as salt: hydrochloride) [Compound 41, N-cyclopropyl-N-[3-(5-fluoro-1H-indol-3-yl)propyl]-N-(5-methoxy-3,4-dihydro-2H-chromen-3-yl)amine]"
13,115 °C (dec.),"COc1cccc2c1CC(N(CCCc1c[nH]c3ccc(F)cc13)CC1CCC1)CO2 (stereo not drawn) (as salt: hydrochloride) [Compound 42, N-(cyclobutylmethyl)-N-[3-(5-fluoro-1H-indol-3-yl)propyl]-N-(5-methoxy-3,4-dihydro-2H-chromen-3-yl)amine]"
14,107 to 110 °C,"COc1cccc2c1CC(N(CCCc1c[nH]c3ccccc13)CC1CC1)CO2 (stereo not drawn) (as salt: hydrochloride) [Compound 43, N-(cyclopropylmethyl)-N-[3-(1H-indol-3-yl)propyl]-N-(5-methoxy-3,4-dihydro-2H-chromen-3-yl)amine]"
15,113 to 117 °C,"COc1cccc2c1CC(N(CCCc1c[nH]c3ccccc13)C1CCC1)CO2 (stereo not drawn) (as salt: hydrochloride) [Compound 44, N-cyclobutyl-N-[3-(1H-indol-3-yl)propyl]-N-(5-methoxy-3,4-dihydro-2H-chromen-3-yl)amine]"
16,123 to 127 °C (dec.),"COc1cccc2c1CC(N(CCCc1c[nH]c3ccc(C#N)cc13)CC1CC1)CO2 (stereo not drawn) (as salt: hydrochloride) [Compound 45, 3-{3-[(cyclopropylmethyl)(5-methoxy-3,4-dihydro-2H-chromen-3-yl)amino]propyl}-1H-indole-5-carbonitrile]"
17,133 to 137 °C,"COc1cccc2c1CC(N(CCCc1c[nH]c3ccc(C#N)cc13)C1CCC1)CO2 (stereo not drawn) (as salt: hydrochloride) [Compound 46, 3-{3-[cyclobutyl(5-methoxy-3,4-dihydro-2H-chromen-3-yl)amino]propyl}-1H-indole-5-carbonitrile]"
18,107 °C (dec.),"CCCN(CCCc1c[nH]c2ccc(F)cc12)[C@H]1CCc2cccc(OC)c2C1 (as salt: hydrochloride) [Compound 47a, (−)-N-[3-(5-fluoro-1H-indol-3-yl)propyl]-8-methoxy-N-propyl-1,2,3,4-tetrahydronaphthalen-2-amine]"
19,110 °C (dec.),"CCCN(CCCc1c[nH]c2ccc(F)cc12)[C@@H]1CCc2cccc(OC)c2C1 (as salt: hydrochloride) [Compound 47b, (2R)-N-[3-(5-fluoro-1H-indol-3-yl)propyl]-8-methoxy-N-propyl-1,2,3,4-tetrahydronaphthalen-2-amine]"
20,108 °C (dec.),"CCCN(CCCc1c[nH]c2ccccc12)C1CCc2cccc(OC)c2C1 (stereo not drawn) (as salt: hydrochloride) [Compound 50, N-[3-(1H-indol-3-yl)propyl]-8-methoxy-N-propyl-1,2,3,4-tetrahydronaphthalen-2-amine]"
21,107 °C (dec.),"CCCN(CCCc1c[nH]c2ccc(F)cc12)C1CCc2c(F)ccc(OC)c2C1 (stereo not drawn) (as salt: hydrochloride) [Compound 51, N-[3-(5-fluoro-1H-indol-3-yl)propyl]-N-(5-fluoro-8-methoxy-1,2,3,4-tetrahydronaphthalen-2-yl)-N-propylamine]"
22,123 °C (dec.),"NC(=O)c1ccc(F)c2c1CC(N(CCCc1c[nH]c3cc(F)ccc13)CC1CC1)CO2 (stereo not drawn) (as salt: hydrochloride) [Compound 52a, 3-{(cyclopropylmethyl)[3-(6-fluoro-1H-indol-3-yl)propyl]amino}-8-fluorochromane-5-carboxamide]"

row,Structure (SMILES),melting point
1,"NC(=O)c1ccc(F)c2c1CC(N(CCCc1c[nH]c3ccc(F)cc13)CC1CC1)CO2 (stereo not drawn) (as salt: hydrochloride) [Compound 5, 3-{(cyclopropylmethyl)[3-(5-fluoro-1H-indol-3-yl)propyl]amino}-8-fluorochromane-5-carboxamide]",121 °C (dec.)
2,"COC(=O)c1ccc(F)c2c1CC(N(CCCc1c[nH]c3ccc(F)cc13)C1CCC1)CO2 (stereo not drawn) (as salt: hydrochloride) [Compound 11, Methyl 3-{cyclobutyl[3-(5-fluoro-1H-indol-3-yl)propyl]amino}-8-fluorochromane-5-carboxylate]",110 °C (dec.)
3,"CCCN(CCCc1c[nH]c2ccc(F)cc12)C1COc2cccc(OC)c2C1 (stereo not drawn) (as salt: hydrochloride) [Compound 23, [3-(5-fluoro-1H-indol-3-yl)propyl]-N-(5-methoxy-chroman-3-yl)propylamine]",117 to 120 °C
4,"CCN(CCCc1c[nH]c2ccc(F)cc12)C1COc2cccc(OC)c2C1 (stereo not drawn) (as salt: hydrochloride) [Compound 31, N-ethyl-N-[3-(5-fluoro-1H-indol-3-yl)propyl]-5-methoxychroman-3-amine]",91.2 °C (dec.)
5,"COc1cccc2c1CC(N(CCCc1c[nH]c3ccc(F)cc13)C1CCC1)CO2 (stereo not drawn) (as salt: hydrochloride) [Compound 34, N-cyclobutyl-N-[3-(5-fluoro-1H-indol-3-yl)propyl]-5-methoxychroman-3-amine]",70.5 °C (dec.)
6,"COc1cccc2c1C[C@@H](N(CCCc1c[nH]c3ccc(F)cc13)C1CCC1)CO2 (as salt: hydrochloride) [Compound 35, (3R)-N-cyclobutyl-N-[3-(5-fluoro-1H-indol-3-yl)propyl]-5-methoxy-3,4-dihydro-2H-chromen-3-amine]",115 °C (dec.)
7,"COc1cccc2c1CC(N(CCCc1c[nH]c3ccc(F)cc13)CC1CC1)CO2 (stereo not drawn) (as salt: hydrochloride) [Compound 37, N-(cyclopropylmethyl)-N-[3-(5-fluoro-1H-indol-3-yl)propyl]-N-(5-methoxy-3,4-dihydro-2H-chromen-3-yl)amine]",114 °C (dec.)
8,"CCCN(CCc1c[nH]c2ccc(F)cc12)C1CCc2cccc(OC)c2C1 (stereo not drawn) (as salt: hydrochloride) [Compound 48, N-[2-(5-fluoro-1H-indol-3-yl)ethyl]-N-(8-methoxy-1,2,3,4-tetrahydronaphthalen-2-yl)-N-propylamine]",105 °C (dec.)
9,"CCN(CCc1c[nH]c2ccc(F)cc12)C1CCc2cccc(OC)c2C1 (stereo not drawn) (as salt: hydrochloride) [Compound 49, N-ethyl-N-[2-(5-fluoro-1H-indol-3-yl)ethyl]-N-(8-methoxy-1,2,3,4-tetrahydronaphthalen-2-yl)amine]",114 °C (dec.)
10,"NC(=O)c1ccc(F)c2c1CC(N(CCCc1c[nH]c3cc(F)ccc13)C1CCC1)CO2 (stereo not drawn) (as salt: hydrochloride) [Compound 53, 3-{cyclobutyl[3-(6-fluoro-1H-indol-3-yl)propyl]amino}-8-fluorochromane-5-carboxamide]",126 °C (dec.)
11,"O=C(O)c1ccc(F)c2c1CC(N(CCCc1c[nH]c3ccc(F)cc13)C1CCC1)CO2 (stereo not drawn) (as salt: hydrochloride) [Compound 56, 3-{cyclobutyl[3-(5-fluoro-1H-indol-3-yl)propyl]amino}-8-fluorochromane-5-carboxylic acid]",140 °C (dec.)
